In patent publication US11365183B2, “Eicosanoid derivatives” (MAX-DELBRUECK-CENTRUM FUER MOLEKULARE MEDIZIN, priority 2009, dated 2022):
pEC50: −log10 of the molar value. “Also recorded” adds a separate entry of the source.

What was measured:
[1] = tested on: neonatal rat cardiomyocytes (NRCMs); test: NRCM bioassay with pharmacological inhibitors (mechanism of cellular action); format: cell-based; details: for inhibition of the negative chronotropic effects of EPA, 17,18-EETeTr and C13: 5 min preincubation, 11,12-EET 30 nM, C3, AH6089 10 μM, EPA 3.3 μM, 17,18-EETeTr 30 nM, C13 30 nM; for inhibition of the negative chronotropic effects of EPA, 17,18-EETeTr and C13 / blocking of the positive chronotropic effect of butaprost: calphostin C 100 nM, H89 1 μM; for blocking of the positive chronotropic effect of butaprost: butaprost 100 nM, AH6089 10 μM
Description: The bioassay with NRCMs was performed as described in examples 25 and 26. […] The cultured NRCMs were preincubated without or with one of the compounds indicated in FIG. 4 for 5 min before the effect of the following agonists was determined: EPA (3.3 μM), 17,18-EETeTr (30 nM) or C13 (30 nM). In some experiments, the NRCMs were stimulated with a selective EP2 prostanoid receptor agonist (butaprost from Sigma-Aldrich; used at a final concentration of 100 nM) to provide a control for the effect of certain inhibitors.

[2] = tested on: neonatal rat cardiomyocytes (NRCMs); test: Chronotropic effect on spontaneous beating rate of cultured neonatal rat cardiomyocytes (identification of agonists); format: cell-based; details: for chronotropic effect (Δ beats/min), mean±SE / agonistic / chronotropic effect on NRCMs, in words: 30 nM, incubation time 5 min; for chronotropic effect (Δ beats/min), mean±SE: NRCM clusters; for agonistic / chronotropic effect on NRCMs, in words: compound alone
From the text: This negative chronotropic effect reflects the capacity of the analogs to interact with and to activate a G-protein coupled receptor or other primary cellular targets that reduce the contractility of cardiomyocytes under basal and stress-induced conditions.
The compounds included EPA and 17,18-EETeTr (compounds 01 and 02; purchased from Cayman Chemical) as well as all but one (compound 16) of the analogs synthesized as described in examples 1-24. The R,S— and S,R-enantiomers of 17,18-EETeTr (compounds 03 and 04) were prepared resolving the racemic mixture (compound 02) by means of chiral-phase HPLC as described previously (Barbosa-Sicard E, Markovic M, Honeck H, Christ B, Muller D N, Schunck W H. Biochem Biophys Res Commun. 2005 Apr. 22; 329(4):1275-81). Before use, the compounds to be tested were prepared as 1000-fold stock solutions in ethanol.
Isolation and cultivation of NRCMs were performed as described previously (Wallukat, G; Wollenberger, A. Biomed Biochim Acta. 1987; 78:634-639; Wallukat G, Homuth V, Fischer T, Lindschau C, Horstkamp B, Jupner A, Baur E, Nissen E, Vetter K, Neichel D, Dudenhausen J W, Haller H, Luft F C. J Clin Invest. 1999; 103: 945-952). Briefly, neonatal Wistar rats (1-2 days old) were killed in conformity to the recommendations of the Community of Health Service of the City of Berlin and the cardiomyocytes were dissociated from the minced ventricles with a 0.2% solution of crude trypsin. The isolated cells were then cultured as monolayers on the bottom (12.5 cm^2) of Falcon flasks in 2.5 ml of Halle S M 20-I medium equilibrated with humidified air. The medium contained 10% heat-inactivated FCS and 2 μmol/l fluoro-deoxyuridine (Serva, Heidelberg, Germany), the latter to prevent proliferation of non-muscle cells. The NRCMs (2.4×10^6 cells/flask) were cultured at 37° C. in an incubator. After 5 to 7 days, the NRCMs formed spontaneously beating cell clusters. […] On the day of the experiment, the culture medium was replaced by 2.0 ml fresh serum-containing medium. Two hours later, the beating rates were monitored at 37° C. using an inverted microscope equipped with a heating stage. To determine the basal rate, 6 to 8 individual clusters were selected and the number of contractions was counted for 15 sec. After that, the compound to be tested was added to the culture and the beating rate of the same clusters was monitored 5 min later again. Based on the difference between the basal and compound-induced beating rate of the individual clusters, the chronotropic effects (Δ beats/min) were calculated and are given as mean±SE values. N refers to the number of clusters monitored which originated, in general, from at least three independent NRCM cultures.
This effect was fully expressed using an EPA concentration of 3.3 μM and an incubation time of 30 min. In contrast, 17,18-EETeTr (C02) produced the same effect almost immediately and already in the low nanomolar range (EC50 of 1-2 nM, data not shown). To compare the activity of 17,18-EETeTr with that of its synthetic analogs, all these compounds were tested at a final concentration of 30 nM and using an incubation time of 5 min.

[3] = tested on: neonatal rat cardiomyocytes (NRCMs); test: Antagonism of the negative chronotropic effect of agonists in NRCMs (identification of antagonists); format: cell-based; details: for inhibition of the agonistic effect of compound C4: 5 min preincubation, C4 and potential antagonist each 30 nM
Description: These antagonists were selected based on their capacity to abolish the negative chronotropic effects of EPA, 17,18-EETeTr and their synthetic agonists on the contractility of neonatal rat cardiomyocytes.
Potential antagonists included compounds C1, C3, C5, C6, C7, and C8, which were synthesized as described above in the corresponding examples.
The bioassay was performed with NRCMs as described in example 25. In the first series of experiments, compound C4 was used as the agonist and its effect was determined after preincubating the cultured NRCMc for 5 min with one of the potential antagonists. Both C4 and the potential antagonist were used at a final concentration of 30 nM.

[4] = tested on: rat model of myocardial infarction; test: Anti-arrhythmic effect in rat model of myocardial infarction (LAD ligation); format: in vivo; details: male Wistar rats
Description: Study design: To gain insight into the in-vivo effects of synthetic 17,18-EETeTr-agonists, myocardial infarction studies were performed in male Wistar rats. Briefly, rats weighing 220-250 g were randomized to receive an i.v. bolus of compound C17 (100 μg in 300 μl 0.9% NaCl) or only 300 μl 0.9% NaCl as vehicle control two hours before induction of myocardial infarction. For safe bolus application, animals were mildly anesthetized using isoflorane. Two hours after bolus application, animals were re-anesthetized with a mixture of ketamine and xylazine (i.v.). Continuous monitoring of the surface-ECG was started (EPTracer, Netherlands) and maintained until the end of the study. After recording of the basal ECG, myocardial infarction was induced by ligation of the left anterior descending artery (LAD). One hour after myocardial infarction animals were sacrificed and organ harvested. Samples from urine, blood, liver, kidney and heart were stored for further analysis.
Method of arrhythmia analysis: Ventricular tachycardia burden was calculated as the sum of all arrhythmic events originating from the ventricular myocardium, which were observed within the first hour after induction of myocardial infarction. In order to quantify not only the frequency but also the severity of the ventricular arrhythmias, an arrhythmia-severity-score was calculated. This score was calculated as the sum of the number of different arrhythmia events (PVC, couplet, triplet, VT<1.5 sec, VT>=1.5 sec), each class factorized by an increasing severity index of 1-5 (e.g. PVC×1, couplets×2, . . . , VT>=1.5 sec×5).

Compound: CCCCC/C=C\CC1OC1C/C=C\C/C=C\CCCC(=O)O (centres unmarked) [11,12-EET, 11,12-epoxyeicosatrienoic acid]
- inhibition of the negative chronotropic effects of EPA, 17,18-EETeTr and C13 [1]: strongly inhibited

Compound: CCC1OC1C/C=C/C/C=C/C/C=C/C/C=C/CCCC(=O)O (centres unmarked) [17,18-EETeTr, reference compound]
- chronotropic effect (Δ beats/min), mean±SE [2]: −22.5±0.8 beats/min
- pEC50 ([2]; NRCMs, effect almost immediate, data not shown, read-out: EC50 of reduction of the beating rate): 8.70 to 9.00
- agonistic / chronotropic effect on NRCMs, in words [2]: acted as agonist

Compound: CC(C)Oc1ccc2c(=O)c3cc(C(=O)O)ccc3oc2c1 [AH6089]
- inhibition of the negative chronotropic effects of EPA, 17,18-EETeTr and C13 [1]: strongly inhibited
- blocking of the positive chronotropic effect of butaprost [1]: blocked

Compound: CCC1OC1C/C=C\CCCCCCC/C=C\CCCC(=O)O (centres unmarked) [Compound C1, (5Z,14Z)-16-(3-Ethyloxirane-2-yl)hexadeca-5,14-dienoic acid]
- agonistic / chronotropic effect on NRCMs, in words [2]: inactive when tested alone
- inhibition of the agonistic effect of compound C4 [3]: did not inhibit

Compound: CCC1OC1CCCC/C=C\CCCC/C=C\CCCC(=O)O (centres unmarked) [Compound C2, (5Z,11Z)-16-(3-Ethyloxirane-2-yl)hexadeca-5,11-dienoic acid]
- agonistic / chronotropic effect on NRCMs, in words [2]: Agonists

Compound: CCC1OC1C/C=C\CCCC/C=C\CCCCCCC(=O)O (centres unmarked) [Compound C3, (8Z,14Z)-16-(3-Ethyloxirane-2-yl)hexadeca-8,14-dienoic Acid]
- agonistic / chronotropic effect on NRCMs, in words [2]: did not exert any significant effect
- inhibition of the negative chronotropic effects of EPA, 17,18-EETeTr and C13 [1]: strongly inhibited
- blocking of the positive chronotropic effect of butaprost [1]: not
- inhibition of the agonistic effect of compound C4 [3]: significantly inhibited
- effect on the negative chronotropic effect of EPA ([3]; antagonist 30 nM, EPA 3.3 μM): abolished
- antagonistic effect against C4, EPA, 17,18-EETeTr, C2 and C13 ([3]; antagonist 30 nM, EPA 3.3 μM, other agonists 30 nM each): highly potent antagonist
- effect on the negative chronotropic effect of C13 ([3]; both analogs in equimolar concentrations (30 nM)): almost completely blocked

Compound: CCC1OC1CCCC/C=C\CCCCCCCCCC(=O)O (centres unmarked) [Compound C4, 16-[(Z)-3-Ethyloxiranyl]hexadec-11(Z)-enoic Acid]
- chronotropic effect (Δ beats/min), mean±SE [2]: −18.3±1.5 beats/min
- agonistic / chronotropic effect on NRCMs, in words [2]: Agonists; also recorded: agonistic effects

Compound: CCC1OC1C/C=C\CCCCCCCCCCCCC(=O)O (centres unmarked) [Compound C5, 16-[(Z)-3-Ethyloxiranyl]hexadec-14(Z)-enoic Acid]
- agonistic / chronotropic effect on NRCMs, in words [2]: no effect; also recorded: did not exert any significant effect
- inhibition of the agonistic effect of compound C4 [3]: significantly inhibited

Compound: CCC1OC1CCCCCCC/C=C\CCCCCCC(=O)O (centres unmarked) [Compound C6, 16-[(Z)-3-Ethyloxiranyl]hexadec-8(Z)-enoic Acid]
- agonistic / chronotropic effect on NRCMs, in words [2]: inactive when tested alone
- inhibition of the agonistic effect of compound C4 [3]: did not inhibit

Compound: CCC1OC1CCCCCCCCCC/C=C\CCCC(=O)O (centres unmarked) [Compound C7, 16-[(Z)-3-Ethyloxiranyl]hexadec-5(Z)-enoic Acid]
- agonistic / chronotropic effect on NRCMs, in words [2]: inactive when tested alone
- inhibition of the agonistic effect of compound C4 [3]: did not inhibit

Compound: CCC1OC1CCCCCCCCCCCCCCCC(=O)O (centres unmarked) [Compound C8, 16-[(Z)-3-Ethyloxiranyl]hexadecanoic Acid]
- melting point: 62.1 to 62.5 °C
- agonistic / chronotropic effect on NRCMs, in words [2]: inactive when tested alone
- inhibition of the agonistic effect of compound C4 [3]: did not inhibit

Compound: CCCC(=O)NCCCC/C=C\CCCCCCCCCC(=O)O [Compound C12, 16-(Butyrylamino)hexadec-11(Z)-enoic acid]
- melting point: 99.2 to 99.6 °C
- agonistic / chronotropic effect on NRCMs, in words [2]: largely inactive

Compound: CNC(=O)C(=O)NCCCC/C=C\CCCCCCCCCC(=O)O [Compound C13, 16-(2-(methylamino)-2-oxoacetamido)hexadac-11(Z)-enoic acid]
- chronotropic effect (Δ beats/min), mean±SE [2]: −33.7±1.3 beats/min
- agonistic / chronotropic effect on NRCMs, in words [2]: Agonists

Compound: CCNC(=O)NCCCC/C=C\CCCCCCCCCC(=O)NCC(=O)[O-].[Na+] [Compound C17, Sodium (Z)-2-(16-(3-Ethylureido)hexadec-11-enamido)acetate]
- side effects of bolus injection ([4]; i.v. bolus 100 μg): did not induce any obvious negative side effects
- ventricular tachycardia burden ([4]; i.v. bolus 100 μg two hours before LAD ligation, first hour after infarction, n=5): 7526.2±5664.3 ms/h
- arrhythmia severity score ([4]; i.v. bolus 100 μg two hours before LAD ligation, n=5): 125±25 arbitrary units
- agonistic / chronotropic effect on NRCMs, in words [2]: Agonists

Compound: CCNC(=O)NCCCC/C=C\CCCCCCCCCC(=O)OCCOCCOCCO [Compound C18, 2-(2-(2-Hydroxyethoxy)ethoxy)ethyl 16-(3-ethylureido)hexadec-11 (Z)-enoate]
- agonistic / chronotropic effect on NRCMs, in words [2]: Agonists

Compound: CCCC(=O)NC/C=C\CCCCCCCCCCCCC(=O)O [Compound C22, 16-Butyramidohexadec-14(Z)-enoic acid]
- melting point: 72.7 to 73.1 °C
- agonistic / chronotropic effect on NRCMs, in words [2]: positive chronotropic effect

Compound: CCCCNC(=O)CCC/C=C\CCCCCCCCCC(=O)O [Compound C24, 16-(Butylamino)-16-oxohexadec-11 (Z)-enoic acid]
- melting point: 78.2 to 78.8 °C
- agonistic / chronotropic effect on NRCMs, in words [2]: Agonists; also recorded: maintain

Compound: O=S(=O)(NCCNC/C=C/c1ccc(Br)cc1)c1cccc2cnccc12 [Compound H89]
- inhibition of the negative chronotropic effects of EPA, 17,18-EETeTr and C13 [1]: not affected
- blocking of the positive chronotropic effect of butaprost [1]: blocked

Compound: CC/C=C\C/C=C\C/C=C\C/C=C\C/C=C\CCCC(=O)O [EPA, eicosapentaenoic acid, reference compound]
- concentration resulting in a progressive reduction of the beating rate ([2]; NRCM cultures): above 1 μM
- concentration at which the reduction of the beating rate was fully expressed ([2]; incubation time of 30 min): 3.3 µM

Compound: CCCC1([C@H](O)C/C=C/[C@H]2[C@H](O)CC(=O)[C@@H]2CCCCCCC(=O)OC)CCC1 [butaprost]
- chronotropic effect on NRCMs ([1]; 100 nM): positive chronotropic effect

Compound: calphostin C
- inhibition of the negative chronotropic effects of EPA, 17,18-EETeTr and C13 [1]: strongly inhibited
- blocking of the positive chronotropic effect of butaprost [1]: not
